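All cell lines were grown in 96-well plates and treated with compound for 48 hours. GI50: concentration for 50% inhibition of growth. The concentration for full growth arrest is given as TGI.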
How the values were obtained:
Assay in all cases: growth of human tumour cells (NCI), 48 h
[1] = tested on: SN12C renal
[2] = tested on: IGROV1 ovarian
[3] = tested on: M14 melanoma
[4] = tested on: KM12 colon
[5] = tested on: UACC-257 melanoma
[6] = tested on: A549 NSCLC
[7] = tested on: MCF7 breast
[8] = tested on: NCI-H460 lung
[9] = tested on: CCRF-CEM leukemia
[10] = tested on: SF-295 CNS
[11] = tested on: SW-620 colon
[12] = tested on: CAKI-1 renal
[13] = tested on: SF-539 CNS
[14] = tested on: OVCAR-5 ovarian
[15] = tested on: LOX IMVI melanoma
[16] = tested on: NCI-H23 lung
[17] = tested on: NCI-H226 lung
[18] = tested on: SR leukemia
[19] = tested on: HOP-62 NSCLC
[20] = tested on: HCT-116 colon
[21] = tested on: HCT-15 colon
[22] = tested on: MDA-MB-231 breast
[23] = tested on: COLO 205 colon
[24] = tested on: K-562 leukemia
[25] = tested on: OVCAR-8 ovarian
[26] = tested on: HT29 colon
[27] = tested on: OVCAR-4 ovarian
[28] = tested on: TK-10 renal
[29] = tested on: HOP-92 NSCLC
[30] = tested on: SF-268 CNS
[31] = tested on: EKVX NSCLC
[32] = tested on: SK-MEL-2 melanoma
[33] = tested on: BT-549 breast
[34] = tested on: PC-3 prostate
[35] = tested on: NCI/ADR-RES ovarian
[36] = tested on: U251 CNS
[37] = tested on: NCI-H522 lung
[38] = tested on: SNB-19 CNS
[39] = tested on: SK-MEL-5 melanoma
[40] = tested on: HL-60(TB) leukemia
[41] = tested on: RPMI-8226 leukemia
[42] = tested on: SK-MEL-28 melanoma
[43] = tested on: ACHN renal
[44] = tested on: DU-145 prostate
[45] = tested on: 786-0 renal
[46] = tested on: MALME-3M melanoma
[47] = tested on: SNB-75 CNS
[48] = tested on: HCC-2998 colon
[49] = tested on: MOLT-4 leukemia
[50] = tested on: RXF 393 renal
[51] = tested on: UO-31 renal
[52] = tested on: A498 renal
[53] = tested on: MDA-MB-435
[54] = tested on: OVCAR-3 ovarian
[55] = tested on: UACC-62 melanoma
[56] = tested on: HS 578T breast
[57] = tested on: SK-OV-3 ovarian
[58] = tested on: T-47D breast

Cc1cc(OC(=O)NCn2cc(-c3ccccc3)nn2)ccc1Cl
TGI [1]: > 100 µM | TGI [2]: > 100 µM | TGI [3]: > 100 µM | TGI [4]: > 100 µM | TGI [5]: > 100 µM | TGI [6]: > 100 µM | TGI [7]: > 100 µM | TGI [8]: > 100 µM | TGI [9]: > 100 µM | TGI [10]: > 100 µM | TGI [11]: > 100 µM | TGI [12]: > 100 µM | TGI [13]: > 100 µM | TGI [14]: > 100 µM | TGI [15]: > 100 µM | TGI [16]: > 100 µM | TGI [17]: > 100 µM | TGI [18]: > 100 µM | TGI [19]: > 100 µM | TGI [20]: > 100 µM | TGI [21]: > 100 µM | TGI [22]: > 100 µM | TGI [23]: > 100 µM | TGI [24]: > 100 µM | TGI [25]: > 100 µM | TGI [26]: > 100 µM | TGI [27]: > 100 µM | TGI [28]: > 100 µM | TGI [29]: > 100 µM | TGI [30]: > 100 µM | TGI [31]: > 100 µM | TGI [32]: > 100 µM | TGI [33]: > 100 µM | TGI [34]: > 100 µM | TGI [35]: > 100 µM | TGI [36]: > 100 µM | TGI [37]: > 100 µM | TGI [38]: > 100 µM | TGI [39]: > 100 µM | TGI [40]: > 100 µM | TGI [41]: > 100 µM | TGI [42]: > 100 µM | TGI [43]: > 100 µM | TGI [44]: > 100 µM | TGI [45]: > 100 µM | TGI [46]: > 100 µM | TGI [47]: > 100 µM | TGI [48]: 39.2 µM | TGI [49]: > 100 µM

COc1cnc2c(c1)C(=O)c1c-2n(CCCNCCO)c(=O)c2ccncc12
GI50 [1]: 1.08 µM | TGI [1]: 13.6 µM | GI50 [50]: 1.2 µM | TGI [50]: 3.48 µM | GI50 [2]: 2.65 µM | TGI [2]: > 100 µM | GI50 [3]: 1.93 µM | TGI [3]: 7.16 µM | GI50 [4]: 1.51 µM | TGI [4]: 11.7 µM | GI50 [51]: 1.3 µM | TGI [51]: 10.1 µM | GI50 [5]: 2.18 µM | TGI [5]: 9.02 µM | GI50 [6]: 1.99 µM | TGI [6]: 9.38 µM | GI50 [7]: 0.303 µM | TGI [7]: 11.3 µM | GI50 [8]: 0.513 µM | TGI [8]: 3.99 µM | GI50 [9]: 0.626 µM | TGI [9]: 12.5 µM | GI50 [10]: 0.912 µM | TGI [10]: 7.89 µM | GI50 [52]: 0.772 µM | TGI [52]: 2.62 µM | GI50 [11]: 0.52 µM | TGI [11]: 12.4 µM | GI50 [12]: 1.37 µM | TGI [12]: 13 µM | GI50 [13]: 1.4 µM | TGI [13]: 6.95 µM | GI50 [14]: 2.74 µM | TGI [14]: 20.5 µM | GI50 [53]: 1.31 µM | TGI [53]: 2.98 µM | GI50 [15]: 0.431 µM | TGI [15]: 3.9 µM | GI50 [16]: 1.65 µM | TGI [16]: 6.91 µM | GI50 [17]: 0.601 µM | TGI [17]: 3.65 µM | GI50 [19]: 1.32 µM | TGI [19]: 26.6 µM | GI50 [20]: 0.489 µM | TGI [20]: 16.9 µM | GI50 [21]: 2.3 µM | TGI [21]: 13.7 µM | GI50 [22]: 1.95 µM | TGI [22]: 10.9 µM | GI50 [23]: 0.82 µM | TGI [23]: 9.05 µM | GI50 [24]: 0.856 µM | TGI [24]: 13 µM | GI50 [54]: 2.26 µM | TGI [54]: 9.73 µM | GI50 [25]: 0.876 µM | TGI [25]: 23.7 µM | GI50 [26]: 0.633 µM | TGI [26]: 16.7 µM | GI50 [27]: 1.38 µM | TGI [27]: 7.46 µM | GI50 [55]: 0.552 µM | TGI [55]: 2.12 µM | GI50 [28]: 2.05 µM | TGI [28]: 19.3 µM | GI50 [29]: 1.4 µM | TGI [29]: 6.31 µM | GI50 [30]: 1.28 µM | TGI [30]: 9.26 µM | GI50 [31]: 2.29 µM | TGI [31]: 9.27 µM | GI50 [32]: 1.81 µM | TGI [32]: 4.75 µM | GI50 [33]: 2.03 µM | TGI [33]: 12.7 µM | GI50 [34]: 1.44 µM | TGI [34]: 11.1 µM | GI50 [35]: 5.83 µM | TGI [35]: 30.8 µM | GI50 [56]: 2.32 µM | TGI [56]: 10.7 µM | GI50 [36]: 0.708 µM | TGI [36]: 19.4 µM | GI50 [37]: 0.607 µM | TGI [37]: 7.26 µM | GI50 [39]: 1.43 µM | TGI [39]: 3.38 µM | GI50 [40]: 2.74 µM | TGI [40]: 11.4 µM | GI50 [57]: 3.94 µM | TGI [57]: 61.3 µM | GI50 [41]: 1.85 µM | TGI [41]: 7.58 µM | GI50 [42]: 2.08 µM | TGI [42]: 5.79 µM | GI50 [43]: 0.553 µM | TGI [43]: 9.93 µM | GI50 [44]: 1.36 µM | TGI [44]: 6.73 µM | GI50 [46]: 1.1 µM | TGI [46]: 2.82 µM | GI50 [47]: 1.13 µM | TGI [47]: 4.2 µM | GI50 [48]: 1.58 µM | TGI [48]: 4.19 µM | GI50 [58]: 0.845 µM | TGI [58]: 37.5 µM | GI50 [49]: 0.405 µM | TGI [49]: 10.2 µM

Reference: PubChem BioAssay (NCI)
